Source: PubChem BioAssay (NCI)
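Step 1: Grow cells in 96-well plates. Step 2: Expose to compound for 48 hours at 5 concentrations. Step 3: Interpolate endpoints linearly; if unreached, use highest concentration. At the GI50, growth is halved. TGI denotes the concentration required for complete inhibition of growth.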

Tests used:
Test in all cases: growth of human tumour cells (NCI), 48 h
HT29 colon = system: HT29 colon
K-562 leukemia = system: K-562 leukemia
A498 renal = system: A498 renal
T-47D breast = system: T-47D breast
A549 NSCLC = system: A549 NSCLC
MOLT-4 leukemia = system: MOLT-4 leukemia
HS 578T breast = system: HS 578T breast
SK-MEL-28 melanoma = system: SK-MEL-28 melanoma
PC-3 prostate = system: PC-3 prostate
U251 CNS = system: U251 CNS
SK-MEL-5 melanoma = system: SK-MEL-5 melanoma
OVCAR-3 ovarian = system: OVCAR-3 ovarian
NCI/ADR-RES ovarian = system: NCI/ADR-RES ovarian
SF-268 CNS = system: SF-268 CNS
OVCAR-5 ovarian = system: OVCAR-5 ovarian
MCF7 breast = system: MCF7 breast
KM12 colon = system: KM12 colon
BT-549 breast = system: BT-549 breast
OVCAR-8 ovarian = system: OVCAR-8 ovarian
HOP-92 NSCLC = system: HOP-92 NSCLC
UACC-257 melanoma = system: UACC-257 melanoma
IGROV1 ovarian = system: IGROV1 ovarian
HCC-2998 colon = system: HCC-2998 colon
SF-295 CNS = system: SF-295 CNS
HL-60(TB) leukemia = system: HL-60(TB) leukemia
HCT-15 colon = system: HCT-15 colon
MDA-MB-231 breast = system: MDA-MB-231 breast
SF-539 CNS = system: SF-539 CNS
RPMI-8226 leukemia = system: RPMI-8226 leukemia
SW-620 colon = system: SW-620 colon
LOX IMVI melanoma = system: LOX IMVI melanoma
COLO 205 colon = system: COLO 205 colon
EKVX NSCLC = system: EKVX NSCLC
CAKI-1 renal = system: CAKI-1 renal
UACC-62 melanoma = system: UACC-62 melanoma
SK-MEL-2 melanoma = system: SK-MEL-2 melanoma
SN12C renal = system: SN12C renal
CCRF-CEM leukemia = system: CCRF-CEM leukemia
NCI-H23 lung = system: NCI-H23 lung
HOP-62 NSCLC = system: HOP-62 NSCLC
RXF 393 renal = system: RXF 393 renal
OVCAR-4 ovarian = system: OVCAR-4 ovarian
TK-10 renal = system: TK-10 renal
MDA-MB-435 = system: MDA-MB-435
HCT-116 colon = system: HCT-116 colon
NCI-H460 lung = system: NCI-H460 lung
786-0 renal = system: 786-0 renal
DU-145 prostate = system: DU-145 prostate
SNB-75 CNS = system: SNB-75 CNS
SK-OV-3 ovarian = system: SK-OV-3 ovarian
M14 melanoma = system: M14 melanoma
SNB-19 CNS = system: SNB-19 CNS
ACHN renal = system: ACHN renal
MALME-3M melanoma = system: MALME-3M melanoma
UO-31 renal = system: UO-31 renal
NCI-H226 lung = system: NCI-H226 lung
NCI-H522 lung = system: NCI-H522 lung

CCOC(=O)C1=C(C)N=C2SC=C(c3ccccc3)N2[C@H]1c1cn[nH]c1-c1ccc(Cl)cc1
GI50 (HT29 colon): 4.32 µM
TGI (HT29 colon): 13.7 µM
GI50 (K-562 leukemia): 3.67 µM
TGI (K-562 leukemia): 23.2 µM
GI50 (A498 renal): 5.37 µM
TGI (A498 renal): 18.2 µM
GI50 (T-47D breast): 3.13 µM
TGI (T-47D breast): 22.4 µM
GI50 (A549 NSCLC): 6.73 µM
TGI (A549 NSCLC): 24.7 µM
GI50 (MOLT-4 leukemia): 2.29 µM
TGI (MOLT-4 leukemia): 7.41 µM
GI50 (HS 578T breast): 3.68 µM
TGI (HS 578T breast): 34.5 µM
GI50 (SK-MEL-28 melanoma): 4.92 µM
TGI (SK-MEL-28 melanoma): 16.8 µM
GI50 (PC-3 prostate): 3.98 µM
TGI (PC-3 prostate): 17.3 µM
GI50 (U251 CNS): 3.8 µM
TGI (U251 CNS): 16.4 µM
GI50 (SK-MEL-5 melanoma): 3.22 µM
TGI (SK-MEL-5 melanoma): 12 µM
GI50 (OVCAR-3 ovarian): 3.21 µM
TGI (OVCAR-3 ovarian): 12 µM
GI50 (NCI/ADR-RES ovarian): 5.97 µM
TGI (NCI/ADR-RES ovarian): 27.6 µM
GI50 (SF-268 CNS): 3.65 µM
TGI (SF-268 CNS): 16.6 µM
GI50 (OVCAR-5 ovarian): 6.06 µM
TGI (OVCAR-5 ovarian): 19.9 µM
GI50 (MCF7 breast): 2.7 µM
TGI (MCF7 breast): 13.8 µM
GI50 (KM12 colon): 4.69 µM
TGI (KM12 colon): 17.5 µM
GI50 (BT-549 breast): 3.84 µM
TGI (BT-549 breast): 13.9 µM
GI50 (OVCAR-8 ovarian): 4.46 µM
TGI (OVCAR-8 ovarian): 19.6 µM
GI50 (HOP-92 NSCLC): 2.4 µM
TGI (HOP-92 NSCLC): 8.7 µM
GI50 (UACC-257 melanoma): 10.1 µM
TGI (UACC-257 melanoma): 24.1 µM
GI50 (IGROV1 ovarian): 2.33 µM
TGI (IGROV1 ovarian): 7.61 µM
GI50 (HCC-2998 colon): 6.24 µM
TGI (HCC-2998 colon): 20.4 µM
GI50 (SF-295 CNS): 7.96 µM
TGI (SF-295 CNS): 22.2 µM
GI50 (HL-60(TB) leukemia): 2.85 µM
TGI (HL-60(TB) leukemia): 7.98 µM
GI50 (HCT-15 colon): 3.19 µM
TGI (HCT-15 colon): 11.7 µM
GI50 (MDA-MB-231 breast): 2.32 µM
TGI (MDA-MB-231 breast): 7.96 µM
GI50 (SF-539 CNS): 5.68 µM
TGI (SF-539 CNS): 18 µM
GI50 (RPMI-8226 leukemia): 2.65 µM
TGI (RPMI-8226 leukemia): 9.39 µM
GI50 (SW-620 colon): 3.84 µM
TGI (SW-620 colon): 14.4 µM
GI50 (LOX IMVI melanoma): 1.46 µM
TGI (LOX IMVI melanoma): 3.43 µM
GI50 (COLO 205 colon): 3.53 µM
TGI (COLO 205 colon): 15.1 µM
GI50 (EKVX NSCLC): 7.68 µM
TGI (EKVX NSCLC): 22.3 µM
GI50 (CAKI-1 renal): 1.76 µM
TGI (CAKI-1 renal): 3.56 µM
GI50 (UACC-62 melanoma): 2.85 µM
TGI (UACC-62 melanoma): 12.5 µM
GI50 (SK-MEL-2 melanoma): 6.21 µM
TGI (SK-MEL-2 melanoma): 19.3 µM
GI50 (SN12C renal): 4.51 µM
TGI (SN12C renal): 17.3 µM
GI50 (CCRF-CEM leukemia): 3.12 µM
TGI (CCRF-CEM leukemia): 14 µM
GI50 (NCI-H23 lung): 4.64 µM
TGI (NCI-H23 lung): 19.6 µM
GI50 (HOP-62 NSCLC): 7.09 µM
TGI (HOP-62 NSCLC): 22 µM
GI50 (RXF 393 renal): 5.32 µM
TGI (RXF 393 renal): 19.1 µM
GI50 (OVCAR-4 ovarian): 4.66 µM
TGI (OVCAR-4 ovarian): 16.6 µM
GI50 (TK-10 renal): 10.2 µM
TGI (TK-10 renal): 22.2 µM
GI50 (MDA-MB-435): 4.07 µM
TGI (MDA-MB-435): 15.2 µM
GI50 (HCT-116 colon): 3.11 µM
TGI (HCT-116 colon): 13.3 µM
GI50 (NCI-H460 lung): 3.36 µM
TGI (NCI-H460 lung): 12.7 µM
GI50 (786-0 renal): 5.2 µM
TGI (786-0 renal): 17 µM
GI50 (DU-145 prostate): 6.12 µM
TGI (DU-145 prostate): 18.8 µM
GI50 (SNB-75 CNS): 5.05 µM
TGI (SNB-75 CNS): 18.3 µM
GI50 (SK-OV-3 ovarian): 7.39 µM
TGI (SK-OV-3 ovarian): 20.1 µM
GI50 (M14 melanoma): 4.37 µM
TGI (M14 melanoma): 19.2 µM
GI50 (SNB-19 CNS): 7.65 µM
TGI (SNB-19 CNS): 20.7 µM
GI50 (ACHN renal): 3.03 µM
TGI (ACHN renal): 11.7 µM
GI50 (MALME-3M melanoma): 1.6 µM
TGI (MALME-3M melanoma): 3.45 µM
GI50 (UO-31 renal): 1.39 µM
TGI (UO-31 renal): 9.53 µM
GI50 (NCI-H226 lung): 8.25 µM
TGI (NCI-H226 lung): 46.1 µM
GI50 (NCI-H522 lung): 1.68 µM
TGI (NCI-H522 lung): 3.44 µM
